Results taken from patent US20250144223A1, “PROTEIN DEGRADATION COMPOUND BASED ON NAMPT TARGET PROTEIN AND APPLICATION THEREOF” (GLUETACS THERAPEUTICS (SHANGHAI) CO., LTD., priority 2021, published 2025).
pIC50: −log10 of the molar value.

Experiments:
Jurkat = test: CellTiter-Glo Luminescent Cell Viability Assay, half inhibitory concentration (IC50) on tumor cell proliferation; assay type: cell-based; conditions: Homo sapiens, Jurkat cells, 72 h treatment
How it was run: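 Jurkat cells seeded at 20,000 cells/well in serum-containing RPMI1640, treated after 24 h with serially diluted compound for 72 h at 37 °C, 5% CO2. Viability read by CellTiter-Glo luminescence; IC50 calculated from growth-inhibition curves.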

HL60 tumor cells = test: In vitro cytotoxicity assay against tumor cells (DAPI staining, flow cytometry); assay type: cell-based; conditions: 10 nM, 4th day
Method: (§1) The tumor cells used herein were cultured in a cell culture medium at 37° C. in an incubator with 5% CO2, where the cell culture medium was supplemented with 10% FBS, as well as penicillin at a final concentration of 100 U/mL and streptomycin at a final concentration of 100 μg/mL. Prior to experimentation, all cells used were identified as correct cells by STR cells, and were negative for mycoplasma through routine testing.
(§2) MOLT4 and HL60 tumor cells were seeded separately in 12-well plates containing 1 mL of RPMI1640 medium, with a cell seeding density of 0.5×10^6 cells/mL. On the second day, the parent inhibitor FK866 and the compounds SIAIS630120 and SIAIS630121 of the present disclosure were individually dissolved in DMSO to obtain stock solutions of the respective compounds at a concentration of 10 μM. Subsequently, 1 μL of the 10 μM compound stock solution was added to 1 mL of cell culture medium to achieve a final concentration of 10 nM. The cells were treated continuously for 4 days, and cell viability was measured once daily during this period. Specifically, cells were sampled once a day, adjusted to a concentration of 1×10^6/mL using a cell staining buffer, stained with 4′,6-diamidino-2-phenylindole dihydrochloride (DAPI) (1:250), and then analyzed with a flow cytometer. Initially, the cells were gated based on differences in cell size, followed by DAPI staining to gate for dead cells. Finally, the cytotoxic efficiency was assessed by calculating the DAPI-positive ratio.

[1] = biological target: T1, intracellular NAMPT (iNAMPT) (Homo sapiens, UniProt P43490); test: Western blot, NAMPT protein degradation (DC50) in SW620, HT29, MCF-7, BEL7404, MOLT4, Jurkat and HL60 cells; assay type: cell-based; conditions: tumor cells, 24 h
T1 construct: assess the expression levels of NAMPT protein in tumor cells treated with the compounds of the present disclosure; endogenous in cells; host or cells: SW620, HT29, MCF-7, BEL7404, MOLT4, Jurkat, HL60
T1 sequence (P43490 whole entry): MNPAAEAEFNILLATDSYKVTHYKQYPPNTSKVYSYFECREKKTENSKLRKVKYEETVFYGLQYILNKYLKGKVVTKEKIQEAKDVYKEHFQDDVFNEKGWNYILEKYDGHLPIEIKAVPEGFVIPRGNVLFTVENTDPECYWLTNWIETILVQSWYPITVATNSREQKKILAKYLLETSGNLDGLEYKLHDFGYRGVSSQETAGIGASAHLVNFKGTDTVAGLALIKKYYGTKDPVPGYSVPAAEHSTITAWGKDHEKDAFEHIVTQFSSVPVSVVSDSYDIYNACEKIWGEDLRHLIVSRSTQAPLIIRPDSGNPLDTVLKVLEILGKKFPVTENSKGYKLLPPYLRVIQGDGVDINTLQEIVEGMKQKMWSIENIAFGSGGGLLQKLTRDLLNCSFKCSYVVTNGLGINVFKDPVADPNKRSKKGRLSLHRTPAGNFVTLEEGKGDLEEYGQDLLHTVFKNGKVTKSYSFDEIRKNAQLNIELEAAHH
Method: (§3) The tumor cells used herein were cultured in a cell culture medium at 37° C. in an incubator with 5% CO2, where the cell culture medium was supplemented with 10% FBS, as well as penicillin at a final concentration of 100 U/mL and streptomycin at a final concentration of 100 μg/mL.
(§4) Tumor cells were seeded at a specific cell density in a 6-well plate containing 2 mL of RPMI1640/DMEM medium. For SW620, HT29, MCF-7, and BEL7404 cells, the seeding density was 1×10^6 cells per well, respectively; for MOLT4, Jurkat, and HL60 cells, the seeding density was 0.5×10^6 cells/mL. […] After 24 hours of compound treatment, the supernatant was removed, and cells were washed with PBS. The cells were then placed on ice and treated with protein lysis buffer containing protease and phosphatase inhibitors. The lysate was centrifuged at 12,000 RPM for 15 minutes at 4° C., and the supernatant was collected. Equal amounts of protein were mixed with 5×SDS, and after denaturation at 95° C. for 5 minutes, the samples were either frozen at −20° C. or subjected to direct protein electrophoresis. SDS-PAGE was performed using equal amounts of protein, and proteins were transferred to a nitrocellulose membrane at 95 V and 4° C. for 90 minutes. After membrane transfer, the membrane was blocked with TBST containing 5% skim milk powder (purchased from Beijing Cowin Bioscience Co., Ltd.) at room temperature for 1 hour. […]

[2] = biological target: T2, extracellular NAMPT (eNAMPT) (Homo sapiens, UniProt P43490); test: Western blot, eNAMPT protein degradation in HL60 and MOLT4 cell lines; assay type: cell-based
T2 construct: degradation effects of compounds SIAIS630120 and SIAIS630121 of the present disclosure on eNAMPT protein in HL60 and MOLT4 cell lines; endogenous in cells; host or cells: HL60, MOLT4
T2 sequence (P43490 whole entry): as above
Method: as §3, §4

hematological tumors = conditions: animal models; cited from earlier work
[3] = clinical trial results; cited from earlier work
MOLT4 tumor cells = test: In vitro cytotoxicity assay against tumor cells (DAPI staining, flow cytometry); assay type: cell-based; conditions: 10 nM, 4th day; for cytotoxicity, more effective than FK866: difference to FK866
Method: as §1, §2

pIC50 (Jurkat)	SMILES	cytotoxic effect (DAPI-positive ratio) (HL60 tumor cells)	also measured
6.59	Cc1ncsc1-c1ccc(CNC(=O)[C@@H]2C[C@@H](O)CN2C(=O)[C@@H](NC(=O)CCCCC(=O)N2CCN(C3CCN(c4ccc(C(=O)N5CCC(CCCCNC(=O)/C=C/c6cccnc6)CC5)nn4)CC3)CC2)C(C)(C)C)cc1 [SIAIS633063, (2S,4R)-1-((S)-3,3-dimethyl-2-(6-oxo-6-(4-(1-(6-(4-(4-((E)-3-(pyridin-3-yl)acrylamido)butyl)piperidine-1-carbonyl)pyridazin-3-yl)piperidin-4-yl)piperazin-1-yl)hexanamido)butanoyl)-4-hydroxy-N-(4-(4-methylthiazol-5-yl)benzyl)pyrrolidine-2-carboxamide]	–	–
7.80	O=C(/C=C/c1cccnc1)NCCCCC1CCN(C(=O)c2ccc(N3CCC(N4CCN(CCCCCC#Cc5cccc6c5CN(C5CCC(=O)NC5=O)C6=O)CC4)CC3)nc2)CC1 (centres unmarked) [SIAIS633093, (E)-N-(4-(1-(6-(4-(4-(7-(2-(2,6-dioxopiperidin-3-yl)-1-oxoisoindolin-4-yl)hept-6-yn-1-yl)piperazin-1-yl)piperidin-1-yl)nicotinoyl)piperidin-4-yl)butyl)-3-(pyridin-3-yl)acrylamide]	–	–
8.21	O=C(/C=C/c1cccnc1)NCCCCC1CCN(C(=O)c2ccc(N3CCC(N4CCN(CCCCCCC#Cc5cccc6c5CN(C5CCC(=O)NC5=O)C6=O)CC4)CC3)nc2)CC1 (centres unmarked) [SIAIS633094, (E)-N-(4-(1-(6-(4-(4-(8-(2-(2,6-dioxopiperidin-3-yl)-1-oxoisoindolin-4-yl)oct-7-yn-1-yl)piperazin-1-yl)piperidin-1-yl)nicotinoyl)piperidin-4-yl)butyl)-3-(pyridin-3-yl)acrylamide]	–	–
7.10	O=C(/C=C/c1cccnc1)NCCCCC1CCN(C(=O)c2ccc(N3CCN(CCCCCCOc4cccc5c4CN(C4CCC(=O)NC4=O)C5=O)CC3)cc2)CC1 (centres unmarked) [SIAIS633097, (E)-N-(4-(1-(4-(4-(6-((2-(2,6-dioxopiperidin-3-yl)-1-oxoisoindolin-4-yl)oxy)hexyl)piperazin-1-yl)benzoyl)piperidin-4-yl)butyl)-3-(pyridin-3-yl)acrylamide]	–	–
7.47	O=C(/C=C/c1cccnc1)NCCCCC1CCN(C(=O)c2ccc(N3CCN(CCCCCCCOc4cccc5c4CN(C4CCC(=O)NC4=O)C5=O)CC3)cc2)CC1 (centres unmarked) [SIAIS633098, (E)-N-(4-(1-(4-(4-(7-((2-(2,6-dioxopiperidin-3-yl)-1-oxoisoindolin-4-yl)oxy)heptyl)piperazin-1-yl)benzoyl)piperidin-4-yl)butyl)-3-(pyridin-3-yl)acrylamide]	–	–

SMILES	pIC50 (Jurkat)	cytotoxic effect (DAPI-positive ratio) (HL60 tumor cells)	also measured
O=C(/C=C/c1cccnc1)NCCCCC1CCN(C(=O)c2ccccc2)CC1 [FK866]	9.20	less than 40%	degradation of intracellular NAMPT (iNAMPT) protein [1]: cannot degrade iNAMPT and eNAMPT proteins; degradation of extracellular NAMPT (eNAMPT) protein ([2]; 24 h, Western blot): cannot degrade iNAMPT and eNAMPT proteins; eNAMPT protein level compared to the DMSO control group ([2]; MOLT4 cells, 10 nM, FIG. 5): higher levels of eNAMPT protein; long-term survival of mice (hematological tumors): 80%; toxicities in clinical trial [3]: dose-limiting toxicities such as thrombocytopenia
O=C(/C=C/c1cccnc1)NCCCCC1CCN(C(=O)c2ccc(N3CCN(CCCCCC#Cc4cccc5c4CN(C4CCC(=O)NC4=O)C5=O)CC3)cc2)CC1 (centres unmarked) [SIAIS630120, (E)-N-(4-(1-(4-(4-(7-(2-(2,6-dioxopiperidin-3-yl)-1-oxoisoindolin-4-yl)hept-6-yn-1-yl)piperazin-1-yl)benzoyl)piperidin-4-yl)butyl)-3-(pyridin-3-yl)acrylamide]	8.21	95%	cytotoxicity (DAPI-positive ratio) (MOLT4 tumor cells): approximately 50%; cytotoxicity, more effective than FK866 (MOLT4 tumor cells): 20%
O=C(/C=C/c1cccnc1)NCCCCC1CCN(C(=O)c2ccc(N3CCN(CCCCCCC#Cc4cccc5c4CN(C4CCC(=O)NC4=O)C5=O)CC3)cc2)CC1 (centres unmarked) [SIAIS630121, (E)-N-(4-(1-(4-(4-(8-(2-(2,6-dioxopiperidin-3-yl)-1-oxoisoindolin-4-yl)oct-7-yn-1-yl)piperazin-1-yl)benzoyl)piperidin-4-yl)butyl)-3-(pyridin-3-yl)acrylamide]	8.32	95%	cytotoxicity (DAPI-positive ratio) (MOLT4 tumor cells): approximately 50%; cytotoxicity, more effective than FK866 (MOLT4 tumor cells): 20%
